Source: patent US20100056519A1, “COMPOSITION AND METHOD FOR REDUCING PLATELET ACTIVATION AND FOR THE TREATMENT OF THROMBOTIC EVENTS” (priority 2008, published 2010)

Columns and labels:
Assay type in all cases: cell-based, human
PAC-1 (GPIIb/IIIa) = test: Unstimulated whole blood flow cytometry, PAC-1; details: for PAC-1 (GPIIb/IIIa), Mean Fluorescence Intensity: unstimulated, Mean ± SD
Experimental: (§1) The methodology employed was conventional aggregation induced by 5 μM ADP, 1 μg/ml collagen, 10 μM TRAP, whole blood aggregation with 1 μg/ml collagen, Ultegra, and PFA-100 Analyzers, expression of 14 intact, and TRAP-stimulated major receptors by whole blood flow cytometry were utilized to assess platelet activity after preincubation with escalating concentrations of E5555 (20 ng/ml, 50 ng/ml, and 100 ng/ml). The experiments were performed in healthy volunteers, CAD patients treated with ASA, and CAD patients treated with ASA and clopidogrel combination (n=10, for each group).
(§2) An Informed Consent was obtained from all volunteers. Drug users were excluded from data analysis. The study was approved by Quorum Institutional Review Board. All subjects underwent blood sampling after at least 30 minutes of rest and two or more hours of fasting. Blood (28 ml) was drawn between 8 and 10 a.m. in order to avoid any diurnal influence and sampled from an antecubital vein using a 21-gauge butterfly needle containing 3.2% sodium citrate (1:9 volume) after having discarded the first 1.5 ml of free running blood. Four Vacutainer tubes (7.0 ml) were collected for a total of 28 ml of whole blood-citrate mixture from each study participant. Chronologically, blood samples were delivered to the core laboratory facility within 45 minutes after drawing. Then all tubes of blood-citrate mixture were pooled. One portion of pooled blood (5 ml) was kept as an internal control and pretreated with the vehicle. The remaining blood (23 ml) was used for the in vitro exposure to E5555 at concentrations of 20 ng/ml, 50 ng/ml, and 100 ng/ml. […] The platelet aggregation studies, Rapid Analyzers measures, and flow cytometry preparations were initiated within no more than 110 minutes following the blood draw, incubation with the drug, and preparation of the samples.
(§3) Formation of platelet-leukocyte aggregates was assessed by dual labeling with pan-platelet marker (CD151), and then with CD14, the macrophage receptor for endotoxin lipopolysaccharides (PharMingen, and Coulter, San Diego, Calif., USA). The tubes were then covered with aluminum foil and incubated at 37° C. for 40 minutes with gentle rotation. After incubation, samples were immediately analyzed on a Becton Dickinson FACScan flow cytometer. The instrument was set up to measure forward light scatter, and FITC fluorescence. All parameters were collected using four-decade logarithmic amplification. The data was retrieved in list mode files and then analyzed. P selectin was expressed as percent positive cells. Other antigens were expressed as log mean fluorescence intensity.

platelets = test: Conventional platelet aggregation in PRP induced by 5 μM ADP; details: for Platelet Aggregation (%), ADP 5 μM: Mean ± SD
Experimental: as §1, §2
Platelet counts were determined in each PRP sample with a Coulter Counter ZM (Coulter Co., Hialeah, Fla.). Platelet numbers were adjusted to 3.50×10^8/ml for aggregation using homologous platelet-poor plasma. Platelet aggregation was stimulated with 5 μM ADP, 1 μg/ml collagen, or 10 μM TRAP. All agonists were obtained from Chronolog Corporation (Havertown, Pa.) and Sigma (St. Louis, Miss.). Platelet aggregation experiments were performed using a Chrono-Log Lumi-Aggregometer (model 560-Ca). Aggregation curves were recorded for 4 minutes and analyzed according to internationally established standards using Aggrolink® software. Platelet aggregability was expressed as the percentage of light transmittance change from baseline using platelet-poor plasma as a reference.

PMA (CD14 + CD151) = test: TRAP-stimulated whole blood flow cytometry, platelet-monocyte aggregates; details: Mean ± SD
Experimental: as §1, §2, §3
For flow cytometry (TRAP-stimulated) all of the above flow cytometry experiments were identically repeated utilizing prestimulation with 10 μmol/L TRAP for 5 minutes at 37° C. To determine statistics, a Paired Sign Test was used to define significance of differences between vehicle and E5555-treated groups. The Mann-Whitney U test was used to analyze nonparametric data. Normally distributed data were expressed as mean±standard error (m±SE), and skewed data as median (range). All P-values were two sided. All analysis was performed using the SPSS v9.0 program (SPSS Inc., Chicago, Ill.).

P-selectin (CD62p) = test: Unstimulated whole blood flow cytometry, P-selectin
Experimental: as §1, §2, §3

[1] = overall summary, stimulation not stated
[2] = E5555 20 ng/ml, Patients (ASA + C)
[3] = E5555 50 ng/ml, Patients (ASA + C)
[4] = E5555 100 ng/ml, Patients (ASA + C)
[5] = E5555 100 ng/ml, Patients (ASA)

Br.CCOc1cc2c(c(F)c1OCC)C(=N)N(CC(=O)c1cc(N3CCOCC3)c(OC)c(C(C)(C)C)c1)C2 [E5555, 1-(3-tert-butyl-4-methoxy-5-morpholinophenyl)-2-(5,6-diethoxy-7-fluoro-1-imino-1,3-dihydro-2H-isoindol-2-yl)ethanone hydrobromide]
GP IIb/IIIa activity with PAC-1, effect in words (PAC-1 (GPIIb/IIIa); [1]): significant reduction
PAC-1 (GPIIb/IIIa), Mean Fluorescence Intensity (PAC-1 (GPIIb/IIIa); [2]): 5.9 ± 0.8 MFI
PAC-1 (GPIIb/IIIa), Mean Fluorescence Intensity (PAC-1 (GPIIb/IIIa); E5555 20 ng/ml, Patients (ASA)): 10.4 ± 1.2 MFI
PAC-1 (GPIIb/IIIa), Mean Fluorescence Intensity (PAC-1 (GPIIb/IIIa); E5555 20 ng/ml, Volunteers): 10.7 ± 1.3 MFI
PAC-1 (GPIIb/IIIa), Mean Fluorescence Intensity (PAC-1 (GPIIb/IIIa); [3]): 6.2 ± 1.0 MFI
PAC-1 (GPIIb/IIIa), Mean Fluorescence Intensity (PAC-1 (GPIIb/IIIa); E5555 50 ng/ml, Patients (ASA)): 10.1 ± 2.0 MFI
PAC-1 (GPIIb/IIIa), Mean Fluorescence Intensity (PAC-1 (GPIIb/IIIa); E5555 50 ng/ml, Volunteers): 9.2 ± 1.5 MFI
PAC-1 (GPIIb/IIIa), Mean Fluorescence Intensity (PAC-1 (GPIIb/IIIa); [4]): 6.3 ± 0.7 MFI
PAC-1 (GPIIb/IIIa), Mean Fluorescence Intensity (PAC-1 (GPIIb/IIIa); [5]): 11.7 ± 2.1 MFI
PAC-1 (GPIIb/IIIa), Mean Fluorescence Intensity (PAC-1 (GPIIb/IIIa); E5555 100 ng/ml, Volunteers): 9.9 ± 2.0 MFI
inhibition of platelet activity, aggregation induced by ADP (platelets; ASA-treated patients with coronary artery disease): 10-12%
ADP-induced aggregation, effect in words (platelets; CAD patients treated with ASA+clopidogrel): remains unchanged
Platelet Aggregation (%), ADP 5 μM (platelets; E5555 20 ng/ml, CAD patients treated with ASA + clopidogrel): 40.8 ± 7.1%
Platelet Aggregation (%), ADP 5 μM (platelets; E5555 20 ng/ml, CAD patients treated with ASA): 51.8 ± 4.7 %
Platelet Aggregation (%), ADP 5 μM (platelets; E5555 20 ng/ml, healthy volunteers): 57.0 ± 9.2 %
Platelet Aggregation (%), ADP 5 μM (platelets; E5555 50 ng/ml, CAD patients treated with ASA + clopidogrel): 42.6 ± 8.3%
Platelet Aggregation (%), ADP 5 μM (platelets; E5555 50 ng/ml, CAD patients treated with ASA): 53.3 ± 5.9 %
Platelet Aggregation (%), ADP 5 μM (platelets; E5555 50 ng/ml, healthy volunteers): 59.4 ± 7.9 %
Platelet Aggregation (%), ADP 5 μM (platelets; E5555 100 ng/ml, CAD patients treated with ASA + clopidogrel): 39.3 ± 5.1%
Platelet Aggregation (%), ADP 5 μM (platelets; E5555 100 ng/ml, CAD patients treated with ASA): 56.2 ± 5.3%
Platelet Aggregation (%), ADP 5 μM (platelets; E5555 100 ng/ml, healthy volunteers): 60.8 ± 10.0 %
inhibition of conventional platelet aggregation induced by ADP (platelets; healthy volunteers, E5555 20, 50, and 100 ng/ml): 15-20%
inhibition of ADP-induced platelet aggregation in plasma (platelets; overall summary of the study): 10-15%
PMA (CD14 + CD151), Mean Fluorescence Intensity (PMA (CD14 + CD151); [2]): 100 ± 21 MFI
PMA (CD14 + CD151), Mean Fluorescence Intensity (PMA (CD14 + CD151); E5555 20 ng/ml, Patients (ASA)): 109 ± 23 MFI
PMA (CD14 + CD151), Mean Fluorescence Intensity (PMA (CD14 + CD151); E5555 20 ng/ml, Volunteers): 133 ± 19 MFI
PMA (CD14 + CD151), Mean Fluorescence Intensity (PMA (CD14 + CD151); [3]): 77 ± 23 MFI
PMA (CD14 + CD151), Mean Fluorescence Intensity (PMA (CD14 + CD151); E5555 50 ng/ml, Patients (ASA)): 82 ± 10 MFI
PMA (CD14 + CD151), Mean Fluorescence Intensity (PMA (CD14 + CD151); E5555 50 ng/ml, Volunteers): 118 ± 14 MFI
PMA (CD14 + CD151), Mean Fluorescence Intensity (PMA (CD14 + CD151); [4]): 108 ± 19 MFI
PMA (CD14 + CD151), Mean Fluorescence Intensity (PMA (CD14 + CD151); [5]): 116 ± 23 MFI
PMA (CD14 + CD151), Mean Fluorescence Intensity (PMA (CD14 + CD151); E5555 100 ng/ml, Volunteers): 125 ± 20 MFI
P selectin, effect in words (P-selectin (CD62p); [1]): not affected
P-selectin (CD62p), % positive cells (P-selectin (CD62p); unstimulated, E5555 20 ng/ml, Patients (ASA + C), Mean ± SD): 7.6 ± 2.0 % positive cells
